Results from patent publication USRE43327E1, “Hydrophobic polyamine analogs and methods for their use” (Aminex Therapeutics, Inc., priority 2001, dated 2012).
pEC50, pIC50: −log10 of the molar value. Like-named read-outs stand apart in the source and are kept apart here.

What was measured:
Assay type in all cases: cell-based
[1] = test system: 4 cell lines (A375, MDA-MB-231, PC-3, SK-OV-3); test: Growth inhibition with DFMO, average over 4 cell lines; conditions: with DFMO
Method: Cells were plated in 96-well plates such that they would be in log growth for the duration of the assay. The day after plating, PAs were added to the cells, and growth, if any, permitted to continue for six days in the presence of 1 mM AG and 0.5 μM SPD to insure that any growth inhibition was not the result of depletion of external polyamines in the media. At the end of the six days, cell growth was measured by MTS/PMS dye assay (Cell Titer 96 Aqueous Non-Radioactive Cell Proliferation Assay; Promega, Madison, Wis.).

PC-3 [2] = test: Growth inhibition assay, PA alone, PC-3; conditions: PA alone (no DFMO), six days, repeat determinations, read-out: Cell Line IC50 PC-3
Method: (§1) Medias were obtained from Mediatech, Inc. (Herdon, Va.) and serums from Gibco BRL (Gaithersburg, Md.). 50 U/ml penicillin, 50 μg/ml streptomycin and 2 mM L-glutamine (all from Bio Whittaker, Walkersville, Md.) were included in all cultures. […] When cells were cultured with polyamines or ORI compounds, 1 mM aminoguanidine (AG; Sigma) was included to inhibit serum amine oxidase activity.

PC-3 [3] = test: Growth inhibition assay (MTS/PMS) with DFMO, PC-3; conditions: in the presence of DFMO (1-5 mM), 1 mM AG, 0.5 μM SPD, six days; repeat determinations; read-out: Cell Line EC50 PC-3
Method: as §1

A375 [4] = test: Growth inhibition assay, PA alone, A375; conditions: PA alone (no DFMO), six days, repeat determinations, read-out: Cell Line IC50 A375
Method: as §1

A375 [5] = test: Growth inhibition assay (MTS/PMS) with DFMO, A375; conditions: in the presence of DFMO (1-5 mM), 1 mM AG, 0.5 μM SPD, six days; repeat determinations; read-out: Cell Line EC50 A375
Method: as §1

SK-OV-3 [6] = test: Growth inhibition assay, PA alone, SK-OV-3; conditions: PA alone (no DFMO), six days, repeat determinations, read-out: Cell Line IC50 SK-OV-3
Method: as §1

MDA-MB-231 [7] = test: Growth inhibition assay, PA alone, MDA-MB-231; conditions: PA alone (no DFMO), six days, repeat determinations, read-out: Cell Line IC50 MDA-MB-231
Method: as §1

SK-OV-3 [8] = test: Growth inhibition assay (MTS/PMS) with DFMO, SK-OV-3; conditions: in the presence of DFMO (1-5 mM), 1 mM AG, 0.5 μM SPD, six days; repeat determinations; read-out: Cell Line EC50 SK-OV-3
Method: as §1

MDA-MB-231 [9] = test: Growth inhibition assay (MTS/PMS) with DFMO, MDA-MB-231; conditions: in the presence of DFMO (1-5 mM), 1 mM AG, 0.5 μM SPD, six days; repeat determinations; read-out: Cell Line EC50 MDA-MB-231
Method: as §1

[10] = Table 3, average over cell lines, read-out: AVG. EC50
[11] = Homo sapiens, MDA-MB-231, 144 h
[12] = Table 1, average EC50 for 4 cell lines, read-out: Ave EC50 value

Row | Compound | pEC50 [1, 10] | pIC50 (PC-3 [2]; Homo sapiens, PC-3, 144 h) | pIC50 (A375 [4]; Homo sapiens, A-375, 144 h) | pIC50 (SK-OV-3 [6]; Homo sapiens, SK-OV-3, 144 h) | pIC50 (MDA-MB-231 [7]; [11]) | other results
1 | CC(C)CC(C)NCCCCC(N)C(=O)NCCCNCCCCNCCCN (single isomer, unassigned) [VA21] | 5.89 | < 4.00 | – | – | – | –
2 | NCCCNCCCCNCCCNC(=O)[C@@H](N)CCCCNC(=O)c1ccccc1 [IA24] | – | – | – | – | – | pEC50 (PC-3 [3]): < 4.52; pIC50 (A375 [4]): < 4.52; pEC50 (A375 [5]): 5.81; pIC50 (PC-3 [2]): < 4.52
3 | CCCCCCCCCCCCCCCCCC(=O)NCCCC[C@@H](N)C(=O)NCCCNCCCCNCCCN [IB2] | 7.08 | < 5.52 | < 5.52 | < 5.52 | < 5.52 | –
4 | CCCCCCCC(=O)NCCCC[C@@H](N)C(=O)NCCCNCCCCNCCCN [IB7] | 4.95 | < 4.52 | < 4.52 | < 4.52 | < 4.52 | –
5 | CCCCCCC(=O)NCCCC[C@@H](N)C(=O)NCCCNCCCCNCCCN [IB8] | 5.45 | < 4.00 | < 4.00 | < 4.00 | < 4.00 | –
6 | NCCCNCCCCNCCCNC(=O)[C@H](N)CCCCNC(=O)c1ccccc1 [IB24] | < 4.52 | < 4.52 | < 4.52 | < 4.52 | < 4.52 | –
7 | NCCCNCCCCNCCCNC(=O)[C@H](N)CCCCNC(=O)c1ccc(-c2ccccc2)cc1 [IB26] | 6.02 | < 4.00 | – | < 4.00 | < 4.00 | –
8 | NCCCNCCCCNCCCNC(=O)[C@H](N)CCCCNC(=O)C(c1ccccc1)c1ccccc1 [IB29] | – | < 4.00 | – | < 4.15 | < 4.00 | –
9 | NCCCNCCCCNCCCNC(=O)[C@H](N)CCCCNC(=O)C(F)(F)C(F)(F)C(F)(F)F [IB39] | – | – | – | – | – | pEC50 (SK-OV-3 [8]): < 4.00; pEC50 (PC-3 [3]): < 4.00; pIC50 (PC-3 [2]): < 4.00; pIC50 (SK-OV-3 [6]): < 4.00; pIC50 (MDA-MB-231 [7]): 5.37; pEC50 (MDA-MB-231 [9]): 4.28
10 | CC(C)(C)OC(=O)NCCCC[C@@H](N)C(=O)NCCCNCCCCNCCCN [IB41] | – | – | – | – | – | pEC50 (PC-3 [3]): 5.17; pEC50 (MDA-MB-231 [9]): 4.50

Second part, led by results:

Row | pEC50 [1, 10] | pIC50 (PC-3 [2]; Homo sapiens, PC-3, 144 h) | pIC50 (A375 [4]; Homo sapiens, A-375, 144 h) | pIC50 (SK-OV-3 [6]; Homo sapiens, SK-OV-3, 144 h) | pIC50 (MDA-MB-231 [7]; [11]) | Compound | other results
11 | 4.94 | < 4.00 | < 4.00 | < 4.00 | < 4.00 | CCCCCC(=O)NCCCC[C@@H](N)C(=O)NCCCNCCCCNCCCN [IB9] | –
12 | 4.93 | < 4.00 | < 4.00 | < 4.00 | < 4.00 | CCCC(=O)NCCC[C@@H](N)C(=O)NCCCNCCCCNCCCN [IB10] | pEC50 [1, 12]: 4.92
13 | – | < 4.52 | < 4.52 | < 4.52 | – | NCCCNCCCCNCCCNC(=O)[C@H](N)CCCCNC(=O)c1ccco1 [IB25] | –
14 | 5.91 | – | – | – | < 4.00 | NCCCNCCCCNCCCNC(=O)[C@H](N)CCCCNC(=O)C12CC3CC(CC(C3)C1)C2 [IB30] | pIC50 (MDA-MB-231 [7]): 4.07
15 | – | < 4.00 | < 4.00 | < 4.00 | < 4.00 | NCCCNCCCCNCCCNC(=O)[C@H](N)CCCNC(=O)C1CCCCC1 [IB32] | pEC50 [1, 12]: 5.44
16 | 5.07 | < 4.00 | < 4.00 | < 4.00 | < 4.00 | CC(C)C(=O)NCCCC[C@@H](N)C(=O)NCCCNCCCCNCCCN [IB33] | –
17 | 5.08 | < 4.00 | < 4.00 | < 4.00 | < 4.00 | CC(C)(C)C(=O)NCCCC[C@@H](N)C(=O)NCCCNCCCCNCCCN [IB34] | –
18 | 4.57 | < 4.00 | < 4.00 | < 4.00 | < 4.00 | CC(C)(C)CC(=O)NCCCC[C@@H](N)C(=O)NCCCNCCCCNCCCN [IB36] | –
19 | 4.45 | < 4.00 | 4.70 | 4.74 | < 4.00 | NCCCNCCCCNCCCNC(=O)[C@H](N)CCCCNC(=O)CC1CC2CCC1C2 (stereo partly shown) [IB37] | –
20 | 4.87 | 4.55 | 4.67 | 4.22 | 4.19 | CC(C)[C@@H]1CC[C@@H](C)C[C@H]1OCC(=O)NCCCC[C@@H](N)C(=O)NCCCNCCCCNCCCN [IB38] | –
